Values joined by “and” are separate entries in the source; they are usually repeats but may differ in a detail not shown here. Equal values may be shown once.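 Step 1: Grow cells in 96-well plates. Step 2: Expose to compound for 48 hours at 5 concentrations. Step 3: Interpolate endpoints linearly; if unreached, use highest concentration. GI50 is the concentration that inhibits growth by half. Definition used: TGI = concentration required for complete inhibition of growth.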
Experiments:
Assay in all cases: growth of human tumour cells (NCI), 48 h
EKVX NSCLC = test system: EKVX NSCLC
HL-60(TB) leukemia = test system: HL-60(TB) leukemia
MOLT-4 leukemia = test system: MOLT-4 leukemia
RPMI-8226 leukemia = test system: RPMI-8226 leukemia
SK-MEL-2 melanoma = test system: SK-MEL-2 melanoma
UACC-257 melanoma = test system: UACC-257 melanoma
UO-31 renal = test system: UO-31 renal
SK-OV-3 ovarian = test system: SK-OV-3 ovarian
M14 melanoma = test system: M14 melanoma
PC-3 prostate = test system: PC-3 prostate

Structure (SMILES) | TGI (EKVX NSCLC) | GI50 (HL-60(TB) leukemia) [µM] | TGI (HL-60(TB) leukemia) [µM] | GI50 (MOLT-4 leukemia) [µM] | TGI (MOLT-4 leukemia) [µM] | TGI (RPMI-8226 leukemia) [µM] | TGI (SK-MEL-2 melanoma) [µM] | TGI (UACC-257 melanoma) [µM] | TGI (UO-31 renal) [µM] | TGI (SK-OV-3 ovarian) | TGI (M14 melanoma) [µM] | TGI (PC-3 prostate) [µM] | GI50 (EKVX NSCLC) | GI50 (M14 melanoma) | GI50 (RPMI-8226 leukemia) | GI50 (UACC-257 melanoma) | GI50 (PC-3 prostate) [µM] | GI50 (SK-MEL-2 melanoma) [µM] | GI50 (SK-OV-3 ovarian) [µM] | GI50 (UO-31 renal) [µM]
COc1cccc(/C=N/[N-]C(N)=O)c1[O-].[Cu+2].[OH3+] | 34.9 µM | 10.8 | > 100 | 10.1 | 38.3 | > 100 | 31.3 | 28.5 | 31.7 |  |  |  |  |  |  |  |  |  |  | 
Cc1nc2sccn2c1C(=O)NNC(N)=S | > 100 µM |  | > 100 |  | > 100 | > 100 | > 100 | > 100 |  | > 100 µM |  |  |  |  |  |  |  |  |  | 
CCOC(=O)C1C(c2ccc(Br)cc2)N(Cc2ccccc2)C(c2ccc(Br)cc2)C(C(=O)OC)S1(=O)=O (configuration not stated) | > 100 µM |  | > 100 |  | > 100 | > 100 | > 100 | > 100 | > 100 | > 100 µM | > 100 |  |  |  |  |  |  |  |  | 
COc1c(OC2OC(CO)C(O)C(O)C2O)cc2c(c1OC)-c1ccc(OC)c(=O)cc1C(NC(C)=O)CC2 (configuration not stated) | > 100 µM |  | > 100 |  | > 100 | > 100 | > 100 | > 100 | > 100 | > 100 µM | > 100 |  |  |  |  |  |  |  |  | 
CC1CC(c2ccccc2)=Nc2ccccc2S1 (configuration not stated) | > 100 µM |  | > 100 |  | > 100 | > 100 | > 100 | > 100 | > 100 | > 100 µM | > 100 |  |  |  |  |  |  |  |  | 
C[n+]1c2ccccc2n2c3ccccc3c(NCCCn3ccnc3)c(C#N)c21 | 24.1 µM |  | 20.3 |  | > 35.7 |  | 4.71 | 35.5 | 42.6 | 38.8 µM | 5.23 | 9.62 |  |  |  |  |  |  |  | 
O=S(Nc1ccccc1)c1ccc(Cl)cc1 (configuration not stated) | > 100 µM |  | > 100 |  | > 100 | > 100 | > 100 | > 100 | > 100 |  | > 100 |  |  |  |  |  |  |  |  | 
NC(=O)CSc1nc2ccccc2c(=O)n1N | > 100 µM |  |  |  | > 100 | > 100 | > 100 | > 100 | > 100 |  | > 100 | > 100 |  |  |  |  |  |  |  | 
Cc1n[nH]c(=O)n1-n1cccc1 | > 100 µM |  |  |  | > 100 | > 100 | > 100 | > 100 | > 100 | > 100 µM | > 100 | > 100 |  |  |  |  |  |  |  | 
COCOC1CCCC[C@@]1(OCCOCCO[C@@]1(c2ccccc2)CCCC[C@H]1OCOC)c1ccccc1 (some centres not stated) | > 100 µM |  | > 100 |  |  | > 100 | > 100 | > 100 | > 100 | > 100 µM | > 100 |  |  |  |  |  |  |  |  | 
COc1ccccc1N=Nc1c(O)ccc2ccccc12 | 36.2 µM and 96.1 µM |  |  |  | > 100 | > 100 | > 100 | > 100 | 39.1 | 29.5 µM and 38.3 µM | > 100 | > 100 | 4.42 µM and 19.5 µM | 33.6 µM and 85 µM | 30.4 µM and > 100 µM | 41.5 µM and > 100 µM |  |  |  | 
CC(C)C(NCc1c2ccccc2[n+](C)c2ccccc12)C(=O)O (configuration not stated) | 24.2 µM |  | > 21 |  | 7.86 | 5.15 | 17 | 19.5 | 21.7 | 31 µM | 16 |  |  |  |  |  |  |  |  | 
Nc1c(C(=O)O)c2ccc([N+](=O)[O-])cc2c(=O)n1-c1nc2ccccc2s1 | > 100 µM |  |  |  | > 100 | > 100 | > 100 |  | > 100 | > 100 µM | > 100 | > 100 |  |  |  |  |  |  |  | 
C/C(CCN(C)C)=N/O | 28.8 µM |  | 13.5 |  | 4.82 | 11.4 | 31.5 | 33.2 | 31.5 | 54.1 µM | 21.9 |  |  |  |  |  |  |  |  | 
Cc1nc(C(=Nc2ccc(Br)cc2)Nn2cnnc2)no1 | > 100 µM |  |  |  | > 100 | > 100 | > 100 | > 100 | > 100 | > 100 µM | > 100 | > 100 |  |  |  |  |  |  |  | 
CCOC(=O)CNC(=O)c1[nH]cnc1/N=N/N(C)C | > 100 µM |  | > 100 |  | > 100 | > 100 | > 100 | > 100 | > 100 | > 100 µM | > 100 |  |  |  |  |  |  |  |  | 
NCCCNc1nc2ccccc2c2c(=O)c3cc(Cl)ccc3sc12 |  |  |  |  |  |  | 3.69 | 3.74 | 2.58 | 3.48 µM |  | 3.23 |  |  |  | 2 µM | 1.69 | 1.99 | 1.58 | 1.28
